# Results published in ChEMBL document CHEMBL5724914, “Linking interpersonal differences in gut microbiota composition and drug biotransformation activity” (2024).
# Experiments:
# [1] = (§1) The drug is tested on Z-021 corresponding to metagenome with ENA study accession number: PRJEB37062 and ENA sample accession number: ERS12561820 for biotransformation under anaerobic condition. The drug concentrations were measured over 9 timepoints collected between 0 and 24 hours of incubation by liquid-chromatography-coupled mass spectrometry (LC–MS); conditions: 2 µM
# [2] = human gut metagenome, 24 h, 2 µM
# [3] = human gut metagenome, 24 h, 2 µM; remark: listed apart in the source
# [4] = human gut metagenome, 24 h, 2 µM; remark: listed apart in the source
# [5] = (§2) The drug is tested on Z-030 corresponding to mouse gut metagenome with ENA study accession number: PRJEB37062 and ENA sample accession number: ERS12561829 for biotransformation under anaerobic condition. The drug concentrations were measured over 9 timepoints collected between 0 and 24 hours of incubation by liquid-chromatography-coupled mass spectrometry (LC–MS); conditions: 2 µM
# [6] = as §2, with “Z-009” for “Z-030”, “pig” for “mouse”, “ERS12561809” for “ERS12561829”; conditions: 2 µM
# [7] = as §2, with “Z-002” for “Z-030”, “rabbit” for “mouse”, “ERS12561802” for “ERS12561829”; conditions: 2 µM
# [8] = as §1, with “Z-023” for “Z-021”, “ERS12561822” for “ERS12561820”; conditions: 2 µM
# [9] = human gut metagenome, 24 h, 2 µM; remark: listed apart in the source
# [10] = as §1, with “Z-005” for “Z-021”, “ERS12561805” for “ERS12561820”; conditions: 2 µM
# [11] = as §2, with “Z-013” for “Z-030”, “rabbit” for “mouse”, “ERS12561813” for “ERS12561829”; conditions: 2 µM
# [12] = as §2, with “Z-006” for “Z-030”, “ERS12561806” for “ERS12561829”; conditions: 2 µM
# [13] = as §1, with “Z-004” for “Z-021”, “ERS12561804” for “ERS12561820”; conditions: 2 µM
# [14] = as §1, with “Z-026” for “Z-021”, “ERS12561825” for “ERS12561820”; conditions: 2 µM
# [15] = human gut metagenome, 24 h, 2 µM; remark: listed apart in the source
# [16] = as §2, with “WLS-006” for “Z-030”, “human” for “mouse”, “ERS12561741” for “ERS12561829”; conditions: 2 µM
# [17] = human gut metagenome, 24 h, 2 µM; remark: listed apart in the source
# [18] = as §2, with “WLS-038” for “Z-030”, “human” for “mouse”, “ERS12561745” for “ERS12561829”; conditions: 2 µM
# [19] = human gut metagenome, 24 h, 2 µM; remark: listed apart in the source
# [20] = human gut metagenome, 24 h, 2 µM; remark: listed apart in the source
# Also: call rule not given here.
Structure (SMILES),Bacterial Biotransformation [1],Bacterial Biotransformation [2],Bacterial Biotransformation [3],Bacterial Biotransformation [4],Bacterial Biotransformation [5],Bacterial Biotransformation [6],Bacterial Biotransformation [7],Bacterial Biotransformation [8],Bacterial Biotransformation [9],Bacterial Biotransformation [10],Bacterial Biotransformation [11],Bacterial Biotransformation [12],Bacterial Biotransformation [13],Bacterial Biotransformation [14],Bacterial Biotransformation [15],Bacterial Biotransformation [16],Bacterial Biotransformation [17],Bacterial Biotransformation [18],Bacterial Biotransformation [19],Bacterial Biotransformation [20]
CCS(=O)(=O)CCn1c([N+](=O)[O-])cnc1C [TINIDAZOLE],Compound metabolized,Compound metabolized,Compound metabolized,Compound metabolized,Compound metabolized,Compound metabolized,Compound metabolized,Compound metabolized,Compound metabolized,Compound metabolized,Compound metabolized,Compound metabolized,Compound metabolized,Compound metabolized,Compound metabolized,Compound metabolized,Compound metabolized,Compound metabolized,Compound metabolized,Compound metabolized
COc1ccc(CN2CCNCC2)c(OC)c1OC.Cl.Cl [TRIMETAZIDINE DIHYDROCHLORIDE],Compound NOT metabolized,Compound NOT metabolized,Compound NOT metabolized,Compound NOT metabolized,Compound NOT metabolized,Compound NOT metabolized,Compound NOT metabolized,Compound NOT metabolized,Compound NOT metabolized,Compound NOT metabolized,Compound NOT metabolized,Compound NOT metabolized,Compound NOT metabolized,Compound NOT metabolized,Compound NOT metabolized,Compound NOT metabolized,Compound NOT metabolized,Compound NOT metabolized,Compound NOT metabolized,Compound NOT metabolized
CN1[C@@H]2CC[C@H]1C[C@@H](OC(=O)c1c[nH]c3ccccc13)C2 [TROPISETRON],Compound NOT metabolized,Compound NOT metabolized,Compound NOT metabolized,Compound NOT metabolized,Compound NOT metabolized,Compound NOT metabolized,Compound NOT metabolized,Compound NOT metabolized,Compound NOT metabolized,Compound NOT metabolized,Compound NOT metabolized,Compound NOT metabolized,Compound NOT metabolized,Compound NOT metabolized,Compound NOT metabolized,Compound NOT metabolized,Compound NOT metabolized,Compound NOT metabolized,Compound NOT metabolized,Compound NOT metabolized
